# Active and inactive are the calls of the source. No cut-off for these calls is given here.
# Tests used:
# Staphylococcus aureus [1] = assay: Antibacterial activity against Staphylococcus aureus 794 infected in BALB/c mouse skin wound infection model assessed as reduction in TNFalpha level at 1 mg/ml, ip pre-infected with bacteria for 24 hrs followed by compound addition and measured after 13 days post infection; assay type: functional, organism-based; conditions: time 12.0 day
# Staphylococcus aureus [2] = assay: Antibacterial activity against methicillin resistant Staphylococcus aureus incubated for 18 hrs by broth microdilution method; assay type: functional
# Staphylococcus aureus [3] = assay: Antibacterial activity against rifampicin resistant Staphylococcus aureus incubated for 18 hrs by broth microdilution method; assay type: functional
# Staphylococcus aureus [4] = assay: Antibacterial activity against Staphylococcus aureus S125 incubated for 18 hrs by broth microdilution method; assay type: functional
# Staphylococcus aureus [5] = assay: Antibacterial activity against kanamycin resistant Staphylococcus aureus incubated for 18 hrs by broth microdilution method; assay type: functional
# [6] = Toxicity in BALB/c mouse infected with Staphylococcus aureus 794 assessed as hyperkeratosis at 1 mg/ml, ip pre-infected with bacteria for 24 hrs followed by compound addition and measured after 13 days by H and E staining based histopathological analysis; assay type: organism-based; conditions: in vivo, 312 h, time 13 day
# Staphylococcus aureus [7] = assay: Antibacterial activity against Staphylococcus aureus 794 infected in BALB/c mouse skin wound infection model assessed as wound healing by measuring thickened scab at 1 mg/ml, ip pre-infected with bacteria for 24 hrs followed by compound addition and measured on day 9; assay type: functional, organism-based; conditions: time 9.0 day
# Staphylococcus aureus [8] = assay: Antibacterial activity against Staphylococcus aureus S794 incubated for 18 hrs by broth microdilution method; assay type: functional
# Staphylococcus aureus [9] = assay: Antibacterial activity against Staphylococcus aureus 794 infected in BALB/c mouse skin wound infection model assessed as wound healing at 1 mg/ml, ip pre-infected with bacteria for 24 hrs followed by compound addition and measured on day 11; assay type: functional; conditions: time 11.0 day
# [10] = Toxicity in BALB/c mouse infected with Staphylococcus aureus 794 assessed as cell necrosis at 1 mg/ml, ip pre-infected with bacteria for 24 hrs followed by compound addition and measured after 13 days by H and E staining based histopathological analysis; assay type: organism-based; conditions: in vivo, 312 h, time 13 day
# Staphylococcus aureus [11] = assay: Antibacterial activity against Staphylococcus aureus incubated for 18 hrs by broth microdilution method; assay type: functional
# Staphylococcus aureus [12] = assay: Antibacterial activity against Staphylococcus aureus ATCC 25923 infected in BALB/c mouse skin wound infection model assessed as reduction in wound bacterial load at 1 mg/ml, ip administered at 1 hr interval for total 6 treatment and measured after 1 hr post last dose; assay type: functional, organism-based; conditions: time 7.0 hrs
# Escherichia coli [13] = assay: Antibacterial activity against Escherichia coli incubated for 18 hrs by broth microdilution method; assay type: functional
# Escherichia coli [14] = assay: Antibacterial activity against rifampicin resistant Escherichia coli incubated for 18 hrs by broth microdilution method; assay type: functional
# Staphylococcus aureus [15] = assay: Antibacterial activity against Staphylococcus aureus 794 infected in BALB/c mouse skin wound infection model assessed as wound healing at 1 mg/ml, ip pre-infected with bacteria for 24 hrs followed by compound addition and measured after 13 days post infection; assay type: functional, organism-based; conditions: time 12.0 day
# Staphylococcus aureus [16] = assay: Antibacterial activity against methicillin resistant Staphylococcus aureus 113 incubated for 18 hrs by broth microdilution method; assay type: functional
# [17] = Toxicity in BALB/c mouse infected with Staphylococcus aureus 794 assessed as inflammatory cell infiltration at 1 mg/ml, ip pre-infected with bacteria for 24 hrs followed by compound addition and measured after 13 days by H and E staining based histopathological analysis; assay type: organism-based; conditions: in vivo, 312 h, time 13 day
# Staphylococcus aureus [18] = assay: Antibacterial activity against methicillin resistant Staphylococcus aureus 75 incubated for 18 hrs by broth microdilution method; assay type: functional
# Escherichia coli [19] = assay: Antibacterial activity against kanamycin resistant Escherichia coli incubated for 18 hrs by broth microdilution method; assay type: functional
structure (smiles),measurement,setting,value
CN[C@H](CC(C)C)C(=O)N[C@H]1C(=O)N[C@@H](CC(N)=O)C(=O)N[C@H]2C(=O)N[C@H]3C(=O)N[C@H](C(=O)N[C@H](C(=O)O)c4cc(O)cc(O)c4-c4cc3ccc4O)[C@H](O)c3ccc(c(Cl)c3)Oc3cc2cc(c3O[C@@H]2O[C@H](CO)[C@@H](O)[C@H](O)[C@H]2O[C@H]2C[C@](C)(N)[C@H](O)[C@H](C)O2)Oc2ccc(cc2Cl)[C@H]1O [VANCOMYCIN],Activity,Staphylococcus aureus [1],Active
same,MIC,Staphylococcus aureus [2],0.5 µM
same,MIC,Staphylococcus aureus [3],128 µM
same,MIC,Staphylococcus aureus [4],0.5 µM
same,MIC,Staphylococcus aureus [5],0.5 µM
same,Activity,[6],Toxic
same,Activity,Staphylococcus aureus [7],Active
same,MIC,Staphylococcus aureus [8],64 µM
same,Activity,Staphylococcus aureus [9],inactive
same,Activity,[10],Toxic
same,MIC,Staphylococcus aureus [11],0.5 µM
same,Activity,Staphylococcus aureus [12],Active
same,MIC,Escherichia coli [13],64 µM
same,MIC,Escherichia coli [14],128 µM
same,Activity,Staphylococcus aureus [15],Active
same,MIC,Staphylococcus aureus [16],0.5 µM
same,Activity,[17],Toxic
same,MIC,Staphylococcus aureus [18],0.5 µM
same,MIC,Escherichia coli [19],64 µM
